# Laboratory results: US7709259B2, “Enhancement of mammalian embryo development” (Board of Regents of the University of Texas System, priority 2003, dated 2010)
# “Also recorded” adds a separate entry of the source.
# Tests used:
# mouse embryos [1] = test: Complete hatching of cultured two-cell mouse embryos; format: cell-based; conditions: for effect on complete hatching: 0.1 μM
# Protocol: Mice were kept under controlled temperature, humidity, and light cycle (12 hour light/dark cycle) conditions with free access to water and food. Three-week old C57B1/6 female mice were purchased from Harlan (Indianapolis, Ind., USA). Eight-week old C3H male mice were purchased initially from Harlan and later from The Jackson Laboratory (Bar Harbor, Me., USA). Superovulation in the female mice was achieved by intraperitoneal injection of pregnant mare serum gonadotropin (5 IU), followed by human chorionic gonadotropin (hCG, 5 IU) 46 hours later. After receiving hCG, each female mouse was paired with one fertile male mouse. Forty-eight hours later, two-cell embryos were harvested from the oviduct into α-MEM media supplemented with 25 mM HEPES and 1% BSA (Irvine Scientific).
# Embryos (17-20 per group) were cultured at 37° C. under 5% CO2 in a four-well dish (Nalge Nunc International, Naperville, Ill., USA) containing 600 μl of medium in each well. The HTF and the α-MEM media were used sequentially during the 96-hour period to meet the changing nutritional requirements of the cleaving embryos [Gardner, 1998]. The HTF medium (SAGE Biopharma) was used during the first 48 hours, and the α-MEM medium (Irvine Scientific), with Earle's Salts and 2 mM glutamine, was used during the second 48 hours. The experimental embryos received Iloprost in water and the control embryos received an equal amount of water. […] After 96-hour culture, each embryo was examined for the presence of the zona pellucida. Embryos completely free of the zona pellucida were counted as having completely hatched. The rate of complete hatching was determined by dividing the number of completely hatched embryos by the total number of embryos. Complete hatching of embryos was chosen as an endpoint instead of blastocyst formation or embryo hatching because the latter two markers are not correlated with establishment of a viable pregnancy [Lane, 1997].
# Student's t-test or one-way analysis of variance followed by Dunnett test were used where appropriate. A p<0.05 was considered statistically significant. Construction of dose response curves and calculation of ED50 values (with the Hill slope set at 1.0) were completed with the GraphPad Prism® software (GraphPad Prism Software Inc., San Diego, Calif., USA).
# mouse embryos [2] = test: Live birth rate, implantation rate and weights of pups and placentae 14 days after embryo transfer; format: in vivo
# Protocol: (§1) Mouse embryos were harvested and cultured as described above, and subsequently published by the present inventor (Huang et al., 2003). Briefly, two-cell embryos ([…]) were harvested from super-ovulated, three-week old C57B1/6 female mice 42 hours after hCG injection. The embryos (14 per group) were cultured at 37° C. under 5% CO2 in four-well dish (Nalge Nunc International, Naperville, Ill., USA) each containing 600 μl HTF media (SAGE Biopharma, Bedminster, N.J., USA). The experimental embryos received Iloprost (1 μM, Caymen Chemical, Ann Arbor, Mich., USA) in water and the control embryos, an equal amount of water. In either case, the volume of water was less than 0.1% of the culture media.
# The day after the embryo donors received hCG, vaginal smears were obtained from potential gestational carriers (eight week old C3B6F1 female mice) to determine the stage of estrus cycle. Those in estrus were paired with vasectomized ICR males (Harlan) and checked for vaginal plugs on the following morning. Those with plugs were designated to be 0.5 day pseudopregnant.
# (§2) Embryo transfer was performed on 2.5 day of pseudopregnancy under a dissecting microscope (Olympus SZ-PT). Surgical anesthesia was obtained through intraperitoneal injection of ketamine (200 mg/Kg) and xylazine (10 mg/Kg) (both from Burns Vet Supply Inc. TX, USA). Each uterine horn was accessed via a 2-cm flank incision. With the proximal oviduct held by a pair of forceps, an opening was created at the distal end of the uterine horn on the anti-mesenteric side with a 30 gauge needle. The opening permits the entry of transfer pipette which has an inner diameter of 135 μm (MidAtlantic Diagnostics, Inc. NJ, USA). Up to seven embryos in 0.8 μl of transfer media (α MEM with 25 mM HEPES and 1% BSA) were transferred to each horn. After each transfer, contents of the pipette were examined under a stereo microscope to identify retained embryos. The flank incision was closed with 9 mm metallic clips (Clay Adams, Parsippany, N.J., USA). To avoid mixing of control and experimental embryos due to embryo migration from one horn to the other (personal communication with Dr. Andreas Zimmer, University of Bonn, Germany), each gestational carrier received either control or experimental embryos. To maintain consistent transfer techniques, the embryo transfer was performed according to the same protocol and by one individual, who was blinded to the treatment the embryos being placed received. To ensure that both groups benefited equally from the experience gained over the course of the study (˜6 months), the embryos were assigned treatments (control or Iloprost) in blocks of four.
# In order to count and weigh the pups accurately, we sacrificed gestational carriers 14 days after embryo transfer (16.5 days of pregnancy or two days before natural birth). After euthanasia, the number of live pups was counted and the weight of individual pup and placenta was determined. All pups were examined for gross anomalies. The number of empty gestation sacs was also counted in order to determine the implantation rate. The live birth rate was expressed as the number of live pups per embryo transferred; the implantation rate was expressed as the number of sacs, with or without live pups, per embryo transferred.
# The Fisher's exact test was used to compare the rates; the Student's t-test was used to compare the weights. A p<0.05 was considered as statistically significant. The GraphPad Instat® software (GraphPad Software Inc., San Diego, Calif., USA) was used for statistical analysis.
# [3] = tested on: human embryos (frozen zygotes); test: Blastocyst formation study with frozen human zygotes; format: cell-based; conditions: Frozen Zygote, 0.1 μM
# Protocol: (§3) With the patients' written instructions, 101 frozen zygotes from 14 couples were used for the blastocyst formation study. The zygotes had been frozen during the period of January, 1993 to November, 2003. After overnight culture, only those embryos that had developed to 2-cell stage were used for further study. For each patient, those 2-cell stage embryos were split into a control pool or an experimental pool. All embryos were cultured in Gobal medium (a modified KSOM medium from IVF online) for 5 days with change medium at 2.5 day. The experimental group was supplemented with 0.1 μM of Iloprost (Cayman Chemical, Ann Arbor, Mich.). The control group was supplemented with vehicle (0.000001% DMSO). Chi-Square test were used to compare the number of blastocyst formed. The quality (size, inner cell mass, trophectoderm) of blastocysts was analyzed by non-parametric Wilcoxon Rank Sum Test. The statistical significance was defined at P<0.05. Another 52 donated frozen blastocysts, from 9 couples, were used for short term study. Forty-five thawed blastocysts were recovered. Those blastocysts were immediately cultured with or without Iloprost. The re-expansion of blastocoel was checked 18 hours later. The analysis of outcome was the same as the analysis for the frozen zygotes study.
# human frozen blastocysts = test: Short term study with thawed frozen human blastocysts; format: cell-based
# Protocol: as §3
# rats = conditions: Iloprost given throughout the gestation period; cited from earlier work
# mouse embryos [4] = test: Developmental stage of cultured embryos at the time of transfer; format: cell-based
# Protocol: as §1, §2
# monkeys = conditions: Iloprost given throughout the gestation period; cited from earlier work
# rabbits = conditions: Iloprost given throughout the gestation period; cited from earlier work
# mouse embryos [5] = test: Implantation rate 72 hours after transfer of cultured embryos to gestational carriers; format: in vivo
# Protocol: as §1
# The day after the embryo donors received hCG, vaginal smears were obtained from potential gestational carriers (eight week old C3B6F1 female mice) to determine the stage of estrus cycle. […]
# Seventy-two hours after embryo transfer, implantation was determined based on a previously described method with some modifications (Paria et al., 1993). […] Discrete blue bands (indicated by *) encircling the uterine horns were counted (FIG. 6A). […] The uterine horns were then opened and the gestation sacs counted (FIG. 6B). The implantation rate was expressed as the number of gestation sacs per embryo transferred. […]
# [6] = tested on: intact mouse embryos (blastocysts); test: Whole embryo radioligand binding assay (3H-Iloprost); conditions: 0.1 μM 3H-Iloprost, with or without 5 μM unlabeled Iloprost, 116 blastocysts
# Protocol: Analysis of the binding of ^3H-Iloprost to blastocysts was performed as previously described [Arbab, 2002] with slight modification. Two hundred thirty-two hatched and hatching blastocysts were washed three times in binding buffer (10 mM MnCl2 in 10 mM HEPES, pH 7.4) and then transferred to 100 μl of binding buffer with or without unlabeled Iloprost (5 μM). The reaction was started by adding an equal amount of binding buffer containing ^3H-Iloprost (200 nM, specific activity 11.0 Ci/mmol, Amersham Biosciences) and incubating for 60 min at room temperature. The reaction was terminated by transferring the blastocysts to 2 ml of ice-cold wash buffer (0.01% BSA in 10 mM HEPES, pH 7.4). The buffer and the blastocysts were filtered through glass fiber filters (Whatman GF/C 2.4 cm) and the filters were washed three times with 2 ml of wash buffer. The filters were dried in an oven before the radioactivity was determined by scintillation counting with 5 ml of scintillation fluid.
# [7] = 1 μM in HTF media, 81 embryos transferred
smiles,measurement,setting,value
"CCCCC[C@H](O)/C=C/[C@H]1[C@H](O)CC(=O)[C@@H]1C/C=C\CCCC(=O)O [PGE2, prostaglandin E2]",effect on complete hatching of cultured mouse embryos,mouse embryos [1]; preliminary data,enhanced the complete hatching
CC#CCC(C)[C@H](O)/C=C/[C@@H]1[C@H]2C/C(=C/CCCC(=O)O)C[C@H]2C[C@H]1O (stereo partly shown) [Iloprost],Pup weight (mean ± S.D.),"mouse embryos [2]; 14 days after transfer (16.5 days of pregnancy), control 0.788 ± 0.151",0.772 ± 0.124 gm
same,Total number of live pups,"mouse embryos [2]; 14 days after transfer of 415 embryos to 31 carriers, control 115",149
same,Placental weight (mean ± S.D.),"mouse embryos [2]; 14 days after transfer, control 0.166 ± 0.037",0.166 ± 0.003 gm
same,live birth rate (live pups per embryo transferred),"mouse embryos [2]; 14 days after transfer, control 28%",36%
same,implantation rate (sacs with or without live pups per embryo transferred),"mouse embryos [2]; 14 days after transfer, control 46%",59%
same,gross anomalies of pups,"mouse embryos [2]; embryos exposed during the pre-implantation period, live pups examined",no gross anomalies; also recorded: no digit reduction or other anomalies
same,blastocysts formed / embryos,"[3]; 5 days culture, control 11/26",(18/26)
same,Blastocyst formation rate,"[3]; 5 days culture, control 42%",69%
same,"ICM (coding A = 3, B = 2, C = 1)","[3]; inner cell mass, control 0.50",1.42
same,Size (score 1-6),"[3]; morula or degenerated = 0, control 1.42",3.04
same,"TRO (coding A = 3, B = 2, C = 1)","[3]; trophectoderm, control 0.46",1.31
same,"TRO (coding A = 3, B = 2, C = 1)","human frozen blastocysts; Frozen blastocyst, 18 hours, control 0.68",0.78
same,"ICM (coding A = 3, B = 2, C = 1)","human frozen blastocysts; Frozen blastocyst, 18 hours, control 0.72",0.86
same,Size (score 1-6),"human frozen blastocysts; Frozen blastocyst, 18 hours, control 1.45",1.47
same,blastocysts / thawed blastocysts,"human frozen blastocysts; Frozen blastocyst, 18 hours, control 11/22",(11/23)
same,Blastocyst formate rate,"human frozen blastocysts; re-expansion of blastocoel checked 18 hours after thaw, control 50%",48%
same,effect on complete hatching,mouse embryos [1]; exposure 0-72 hours after harvest,same rates of complete hatching as did 0-96 hours exposure
same,effect on complete hatching,mouse embryos [1]; exposure 24-42 hours (eight-cell embryos to morulae),ensured enhanced hatching
same,effect on complete hatching,mouse embryos [1]; exposure 24-72 hours after harvest,same rates of complete hatching as did 0-96 hours exposure
same,effect on complete hatching,mouse embryos [1]; exposure 42-72 hours (morulae to early blastocysts),ensured enhanced hatching
same,effect on complete hatching,mouse embryos [1]; exposure during the first 24 hours of culture (two-cell to eight-cell),did not enhance hatching
same,rate of complete hatching (mean±S.D.),"mouse embryos [1]; 1 μM, maximum augmentation, 96 hours, n=3, control 49±14%",81±7%
same,concentration at which effects on complete hatching were statistically significant,mouse embryos [1]; 96 hour culture,≥ 0.1 µM
same,EC50,"mouse embryos [1]; Mus musculus, 96 h, two-cell mouse embryos cultured 96 hours with 1 nM to 10 μM, Hill slope set at 1.0, read-out: ED50 for enhancement of complete hatching",6.7 nM
same,embryonic and fetal development,rats,digit reduction
same,Degenerated (number of embryos at transfer),mouse embryos [4]; [7],0
same,Hatching Blastocyst (number of embryos at transfer),mouse embryos [4]; [7],2
same,Morula (number of embryos at transfer),mouse embryos [4]; [7],49
same,Early Blastocyst (number of embryos at transfer),"mouse embryos [4]; 1 μM, 81 embryos transferred, blastocoele cavity <49% of the embryo",8
same,Late Blastocyst (number of embryos at transfer),"mouse embryos [4]; 1 μM, 81 embryos transferred, blastocoele cavity ≧50% of the embryo",22
same,embryos at the morula stage at the time of transfer,mouse embryos [4]; experimental and control embryos,approximately 70%
same,embryonic and fetal development,monkeys,not affected
same,embryonic and fetal development,rabbits,not affected
same,Number of gestation sacs,"mouse embryos [5]; 72 hours after transfer of 81 embryos cultured with 1 μM, control 35",62
same,implantation rate (gestation sacs per embryo transferred),"mouse embryos [5]; 72 hours after transfer, control 42%",76%
same,3H-Iloprost specifically bound,[6],approximately 3.04 fmol
